Assays:
[1] = tested on: Maize (variety: A188) immature embryos; assay: Regeneration of whole plants from immature embryos cultured on coculture medium supplemented with various types of auxin (Example 1); assay type: cell-based; settings: auxin 1.5 mg/l in coculture medium; for Regeneration rate (%): 7 days, no selection step, LSZ medium 30 mg/l hygromycin about 2 weeks, LBA4404 (pSB134), 25 immature embryos; for Vigor: mean score 0-3 of regenerated plants, 2 weeks on regeneration medium
Excerpt: As used herein, the term “vigor” is intended to mean the growth vigor of a regenerated plant. The vigor of a plant may be measured by any known technique used in the art. For example, in the case of maize, scoring may be performed as follows for each transformed plant tissue after the regeneration step: transformed plant tissue showing no regeneration=0, transformed plant tissue giving a regenerated shoot whose maximum length is less than 5 mm=1, transformed plant tissue giving a regenerated shoot whose maximum length is 5 mm to less than 2 cm=2, and transformed plant tissue giving a regenerated shoot whose maximum length is 2 cm or longer=3, followed by calculating a mean value for all transformed plant tissues to thereby determine their vigor. The method of evaluation of vigor is not limited to this technique, and appropriate modifications may be made to well-known techniques, e.g., depending on the type of target to be evaluated.
25 immature embryos were provided for each test. The bar graph (vertical axis on the left side) represents the vigor of regenerated plants, the line graph (vertical axis on the right side) represents the regeneration rate (calculated by dividing the number of immature embryos showing regeneration in each test by the number of inoculated immature embryos), and the horizontal axis represents the type of auxin contained in a coculture medium. The auxin concentration in the coculture medium was set to 1.5 mg/l for each test. The vigor of regenerated plants was evaluated by scoring as follows: immature embryo showing no regeneration=0, immature embryo giving a regenerated shoot whose maximum length is less than 5 mm=1, immature embryo giving a regenerated shoot whose maximum length is 5 mm to less than 2 cm=2, and immature embryo giving a regenerated shoot whose maximum length is 2 cm or longer=3.
Maize (variety: A188) immature embryos (1.0 to 1 5 mm in size) at 7 to 14 days after pollination were aseptically collected and washed once with LS-inf liquid medium (Non-patent Publication No. 11), followed by pretreatment (thermal treatment at 46° C. for 3 minutes and centrifugation at 15,000 rpm for 10 minutes) to increase gene transfer efficiency. In LS-inf liquid medium containing 100 μM acetosyringone, Agrobacterium strain LBA4404 (pSB134) (Non-patent Publication No. 27) was suspended at about 1.0×10^9 cfu/ml to prepare an inoculum. The thermally-treated and centrifuged immature embryos were mixed with the inoculum, vortexed for 30 seconds, and then allowed to stand for 5 minutes at room temperature.
The number of immature embryos which regenerated into whole plants was determined, and the regenerated plants were examined for their vigor.

[2] = tested on: Immature embryos (variety: A188); assay: Effect of dicamba and 2,4-D in coculture medium on regeneration (Example 2, FIG. 3); assay type: cell-based, Maize; settings: for vigor of regenerated plants: mean score 0-3, coculture medium with this auxin alone (1.5 mg/l), selection step eliminated, FIG. 3
Excerpt: FIG. 3 is a graph showing the effects of the dicamba/2,4-D ratio on the plant regeneration rate from cocultured immature embryos and on the vigor of regenerated plants. 38 immature embryos were provided for each test. The bar graph (vertical axis on the left side) represents the vigor of regenerated plants, the line graph (vertical axis on the right side) represents the regeneration rate (calculated by dividing the number of immature embryos showing regeneration in each test by the number of inoculated immature embryos), and the horizontal axis represents the percentage of dicamba contained in a coculture medium. The numerical values on the horizontal axis mean that auxin is contained in the coculture medium at the following ratios: 0 mg/l dicamba+1.5 mg/l 2,4-D (0% dicamba), 0.375 mg/l dicamba+1.125 mg/l 2,4-D (25% dicamba), 0.75 mg/l dicamba+0.75 mg/l 2,4-D (50% dicamba), 1.125 mg/l dicamba+0.375 mg/l 2,4-D (75% dicamba), and 1.5 mg/l dicamba+0 mg/l 2,4-D (100% dicamba). The vigor of regenerated plants was evaluated by scoring as follows: immature embryo showing no regeneration=0, immature embryo giving a regenerated shoot whose maximum length is less than 5 mm=1, immature embryo giving a regenerated shoot whose maximum length is 5 mm to less than 2 cm=2, and immature embryo giving a regenerated shoot whose maximum length is 2 cm or longer=3.
The vector U0009B shown in FIG. 2 and SEQ ID NO: 1 was constructed by adding necessary elements to a vector having pSB11 (Non-patent Publication No. 28) as a skeletal structure. […] The number of immature embryos which regenerated into whole plants was determined, and the regenerated plants were examined for their vigor.

[3] = tested on: Immature embryos (variety: A188); assay: Transformation efficiency with regeneration medium containing blasticidin S (Example 4); assay type: cell-based, Maize; settings: for Number of immature embryos Regenerated: about 2 weeks, 46 inoculated
[4] = higher percentage of dicamba (0-100%, rest 2,4-D, total 1.5 mg/l) in coculture medium
[5] = 2 mg/l blasticidin S in regeneration medium

Row | SMILES | Regeneration rate (%) [1] | Vigor [1] | vigor of regenerated plants [2] | also measured
1 | O=C(O)COc1cc(Cl)c(Cl)cc1Cl [2,4,5-T, 2,4,5-trichlorophenoxyacetic acid] | 84.0% | 1.5 | – | –
2 | O=C(O)COc1ccc(Cl)cc1Cl [2,4-D, 2,4-dichlorophenoxyacetic acid] | 84.0% | – | 0.3 | –
3 | COc1c(Cl)ccc(Cl)c1C(=O)O [Dicamba, 3,6-dichloro-o-anisic acid] | 100% | 1.5 | 2.3 | growth of the regenerated plants [2, 4]: more vigorous growth; regeneration rate [2, 4]: higher regeneration rate
4 | Nc1c(Cl)c(Cl)nc(C(=O)O)c1Cl [Picloram, 4-amino-3,5,6-trichloropicolinic acid] | 76.4% | 1.2 | – | –
5 | O=C(O)c1cc(I)cc(I)c1I [TIBA, 2,3,5-triiodobenzoic acid] | 4.0% | 0.1 | – | –
6 | CN(CC[C@H](N)CC(=O)N[C@H]1C=C[C@H](n2ccc(N)nc2=O)O[C@@H]1C(=O)O)C(=N)N [blasticidin, blasticidin S] | – | – | – | GUS− [3, 5]: 12; Number of immature embryos GUS+ (B) [3, 5]: 19; Striped, dotted (C) [3, 5]: 14; Number of immature embryos Regenerated [3, 5]: 45; Number of immature embryos Regenerated ([3]; 2 mg/l blasticidin S in regeneration medium, listed as blasticidin S): Almost all; B/A (%) ([3]; 2 mg/l blasticidin S, GUS+ per inoculated embryos): 41.3%; C/A (%) ([3]; 2 mg/l blasticidin S, striped/dotted per inoculated embryos): 3.04%
